Reference: patent US9981969B2, “Imidazole derivatives and methods of use thereof for improving the pharmacokinetics of a drug” (MERCK SHARP & DOHME CORP., priority 2013, dated 2018)

Legend:
CYP2D6 = molecular target: T1, CYP2D6 (Homo sapiens, UniProt P10635); assay: Cocktail assay for CYPs in human liver microsomes, dextromethorphan O-demethylation (2D6); type: biochemical; conditions: 5 μM dextromethorphan, 10 min at 37° C.
T1 construct: 0.1 mg/mL protein human liver microsomes (BD Gentest); tissue BD Gentest; host or cells: human liver microsomes
T1 sequence (P10635 whole entry): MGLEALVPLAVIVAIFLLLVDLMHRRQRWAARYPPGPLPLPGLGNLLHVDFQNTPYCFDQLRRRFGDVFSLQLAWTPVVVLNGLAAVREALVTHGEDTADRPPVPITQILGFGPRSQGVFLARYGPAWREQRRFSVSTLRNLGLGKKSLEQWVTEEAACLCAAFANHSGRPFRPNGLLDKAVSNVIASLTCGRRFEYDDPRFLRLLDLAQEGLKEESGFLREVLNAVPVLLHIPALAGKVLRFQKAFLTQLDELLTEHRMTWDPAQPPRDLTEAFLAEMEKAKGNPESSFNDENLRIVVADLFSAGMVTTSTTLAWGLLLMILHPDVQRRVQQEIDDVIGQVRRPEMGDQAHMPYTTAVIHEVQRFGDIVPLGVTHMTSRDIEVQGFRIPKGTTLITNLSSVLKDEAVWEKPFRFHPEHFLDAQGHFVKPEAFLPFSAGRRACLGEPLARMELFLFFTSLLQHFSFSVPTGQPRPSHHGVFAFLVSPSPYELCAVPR
Description: (§1) This assay was performed in a standard 96-well plate design. IC50 values were calculated from the percent inhibition observed for each test compound at 6 concentrations (for example, 0.0032, 0.016, 0.08, 0.4, 2 and 10 μM). The incubation substrate mix contains 10 μM phenacetin (1A2), 5 μM diclofenac (2C9), 30 μM mephenytoin (2C19), 5 μM dextromethorphan (2D6) and 2 μM midazolam (3A4), 0.1 mg/mL protein human liver microsomes (BD Gentest), 1 mM NAPDH, 3.3 mM MgCl2 and 100 mM potassium phosphate buffer (pH 7.4). The production of the metabolite of each probe substrate was determined after incubation for 10 min at 37° C. Quantitation of the metabolite peak area ratio against an internal standard (tolbutamide) was determined by LC/MS/MS analysis following acetonitrile treatment of the incubations.
(§2) Samples were analyzed in the MRM mode with a SCIEX API-4000 mass spectrometer (Applied Biosystems, Foster City, Calif.), with a Shimadzu LC-20 AD pump (Shimadzu corporation, Kyoto, JP) and a CTC PAL autosampler (Agilent Technologies, Switzerland). A Phenomenex, Luna, 5 μm, 100A, 2.00×30 mm HPLC column was used for the separation. The mobile phases were: (A) 0.1% formic acid in water and (B) 0.1% formic acid in acetonitrile. The binary gradient was as follows. AutoSampler: CTC PAL
(§3) The peak area ratio of the analyte to the internal standard was used to quantify the metabolite. The values of peak area ratios in the presence of test compound were compared to those of maximum or minimum controls and were expressed as % inhibition by interpolating between the maximum and minimum peak area ratios. Incubations with no inhibitor were defined as the maxima. The following equation was used to calculate the % inhibition: [1−[(X−Low control)/(High control−Low control)]]*100 For the IC50 calculation, SigmaPlot was used to plot the mean % inhibition versus the test compound concentrations and for non-linear regression analysis of the data. Depending on the range of data points defining the inhibition curve, the data may have been fit to the 4-parameter logistic equation.

CYP3A4 = molecular target: T2, CYP3A4 (Homo sapiens, UniProt P08684); assay: Cocktail assay for CYPs in human liver microsomes, midazolam 1′-hydroxylation (3A4); type: biochemical; conditions: 2 μM midazolam, 10 min at 37° C.
T2 construct: 0.1 mg/mL protein human liver microsomes (BD Gentest); tissue BD Gentest; host or cells: human liver microsomes
T2 sequence (P08684 whole entry): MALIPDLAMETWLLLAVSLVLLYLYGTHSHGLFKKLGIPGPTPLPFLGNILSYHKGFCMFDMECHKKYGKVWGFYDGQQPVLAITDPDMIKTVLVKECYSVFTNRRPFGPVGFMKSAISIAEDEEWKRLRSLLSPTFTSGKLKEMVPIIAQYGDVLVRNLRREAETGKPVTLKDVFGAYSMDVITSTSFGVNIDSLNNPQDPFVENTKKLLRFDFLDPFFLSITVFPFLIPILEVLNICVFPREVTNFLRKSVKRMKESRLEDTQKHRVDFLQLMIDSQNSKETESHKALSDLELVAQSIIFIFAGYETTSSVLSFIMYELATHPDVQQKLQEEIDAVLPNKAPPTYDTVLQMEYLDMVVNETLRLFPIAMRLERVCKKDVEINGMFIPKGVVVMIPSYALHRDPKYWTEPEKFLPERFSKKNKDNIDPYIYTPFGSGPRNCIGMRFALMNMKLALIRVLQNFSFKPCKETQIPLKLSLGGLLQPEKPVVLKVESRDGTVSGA
Description: as §1, §2, §3

CYP2C9 = molecular target: T3, CYP2C9 (Homo sapiens, UniProt P11712); assay: Cocktail assay for CYPs in human liver microsomes, diclofenac 4′-hydroxylation (2C9); type: biochemical; conditions: 5 μM diclofenac, 10 min at 37° C.
T3 construct: 0.1 mg/mL protein human liver microsomes (BD Gentest); tissue BD Gentest; host or cells: human liver microsomes
T3 sequence (P11712 whole entry): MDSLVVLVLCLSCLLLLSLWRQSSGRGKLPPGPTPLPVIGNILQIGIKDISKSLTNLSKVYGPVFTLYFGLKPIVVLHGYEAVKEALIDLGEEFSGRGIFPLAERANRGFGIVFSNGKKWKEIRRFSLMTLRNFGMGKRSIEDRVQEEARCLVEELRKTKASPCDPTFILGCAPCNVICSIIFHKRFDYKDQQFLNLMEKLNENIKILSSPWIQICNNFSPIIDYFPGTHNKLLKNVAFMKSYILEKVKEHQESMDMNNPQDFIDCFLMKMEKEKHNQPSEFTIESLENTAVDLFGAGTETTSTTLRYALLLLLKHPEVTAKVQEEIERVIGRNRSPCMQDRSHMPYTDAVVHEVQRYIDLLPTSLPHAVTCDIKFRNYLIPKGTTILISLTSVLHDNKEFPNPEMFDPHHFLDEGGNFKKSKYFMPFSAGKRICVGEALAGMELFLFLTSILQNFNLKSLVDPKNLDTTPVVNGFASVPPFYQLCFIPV
Description: as §1, §2, §3

human CYP11B1 = molecular target: T4, human CYP11B1 (Homo sapiens, UniProt P15538); assay: IC50 vs CYP11B1 by measurement of cortisol synthesis in V79 cells; type: cell-based; conditions: V79 cells expressing human CYP11B1, 1500 nM RSS, cortisol HTRF
T4 construct: expressed in transfected cells
T4 sequence (P15538 25-503): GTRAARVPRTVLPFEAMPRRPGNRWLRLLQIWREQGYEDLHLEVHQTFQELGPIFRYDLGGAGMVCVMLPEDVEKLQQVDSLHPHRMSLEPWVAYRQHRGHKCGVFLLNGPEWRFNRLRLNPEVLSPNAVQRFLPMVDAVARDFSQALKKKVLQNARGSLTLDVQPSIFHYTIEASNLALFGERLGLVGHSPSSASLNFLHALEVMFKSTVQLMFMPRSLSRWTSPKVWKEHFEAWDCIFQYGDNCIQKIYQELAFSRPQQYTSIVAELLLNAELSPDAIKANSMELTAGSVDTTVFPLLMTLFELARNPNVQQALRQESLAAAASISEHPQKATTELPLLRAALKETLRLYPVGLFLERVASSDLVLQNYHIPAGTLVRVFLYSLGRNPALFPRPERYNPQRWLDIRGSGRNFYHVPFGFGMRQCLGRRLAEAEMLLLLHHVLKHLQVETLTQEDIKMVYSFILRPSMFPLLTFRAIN
Description: (§4) This assay was performed in a standard 384-well plate design using cultured V79 cells stably expressing human CYP11B1 or human CYP11B2. Test compounds at 10 concentrations (for example, 10000, 3333.3, 1111.1, 370.4, 123.5, 41.2, 13.7, 4.6, 1.5 and 0.5 nM) were added in 384-well plate after the cell-seeding procedure. The incubation substrate contains 1500 nM RSS for CYP11B1 assay/750 nM DOC for CYP11B2 assay. The Cortisol/Aldosterone production of cell culture supernatant was determined by Cortisol/Aldosterone HTRF kit after for about 15 hours incubation at RT (protect from light). IC50 (nM) values were calculated from the percent inhibition observed for each test compound at 10 concentrations.
(§5) The assay plate was read using Envision (Perkin Elmer, Waltham, Mass.) at 665 nm and 590 nm (using Filter Barcode of 217#, 205#; Mirror Barcode of 446#).
(§6) Data are analyzed using Assay Data Analyzer. All ratio data (665 nm/590 nm) are back calculated according to the standard curve, resulting in Cortisol/Aldosterone concentrations. IC50 (nM) values are reported as the Inflection Point (IP) of a four parameter fit of the titration data.
(§7) The following equation was used to calculate the % inhibition: % Activity=100×{1−(Sample_back calculated Cortisol/Aldosterone concentration−LC_back calculated Cortisol/Aldosterone concentration)/(HC_back calculated Cortisol/Aldosterone concentration−LC_back calculated Cortisol/Aldosterone concentration)} Curve Fitting: Four Parameter Logistic: […]

human CYP11B2 = molecular target: T5, human CYP11B2 (Homo sapiens, UniProt P19099); assay: IC50 vs CYP11B2 by measurement of aldosterone synthesis in V79 cells; type: cell-based; conditions: V79 cells expressing human CYP11B2, 750 nM DOC, aldosterone HTRF
T5 construct: expressed in transfected cells
T5 sequence (P19099 25-503): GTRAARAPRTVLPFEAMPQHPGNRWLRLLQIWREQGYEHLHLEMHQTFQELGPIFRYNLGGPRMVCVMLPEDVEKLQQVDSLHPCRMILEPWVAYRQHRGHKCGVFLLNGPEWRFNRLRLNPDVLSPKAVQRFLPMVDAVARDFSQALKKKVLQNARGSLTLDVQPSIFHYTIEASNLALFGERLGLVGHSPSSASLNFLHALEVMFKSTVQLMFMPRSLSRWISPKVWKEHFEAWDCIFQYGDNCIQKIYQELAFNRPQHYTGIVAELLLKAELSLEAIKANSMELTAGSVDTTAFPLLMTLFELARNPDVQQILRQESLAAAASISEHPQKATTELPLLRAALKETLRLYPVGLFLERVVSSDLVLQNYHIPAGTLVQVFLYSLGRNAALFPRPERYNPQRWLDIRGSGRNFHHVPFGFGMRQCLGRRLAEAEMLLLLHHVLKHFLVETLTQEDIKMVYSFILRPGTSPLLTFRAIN
Description: as §4, §5, §6, §7

CYP1A2 = molecular target: T6, CYP1A2 (Homo sapiens, UniProt P05177); assay: Cocktail assay for CYPs in human liver microsomes, phenacetin O-deethylation (1A2); type: biochemical; conditions: 10 μM phenacetin, 10 min at 37° C.
T6 construct: 0.1 mg/mL protein human liver microsomes (BD Gentest); tissue BD Gentest; host or cells: human liver microsomes
T6 sequence (P05177 1-516): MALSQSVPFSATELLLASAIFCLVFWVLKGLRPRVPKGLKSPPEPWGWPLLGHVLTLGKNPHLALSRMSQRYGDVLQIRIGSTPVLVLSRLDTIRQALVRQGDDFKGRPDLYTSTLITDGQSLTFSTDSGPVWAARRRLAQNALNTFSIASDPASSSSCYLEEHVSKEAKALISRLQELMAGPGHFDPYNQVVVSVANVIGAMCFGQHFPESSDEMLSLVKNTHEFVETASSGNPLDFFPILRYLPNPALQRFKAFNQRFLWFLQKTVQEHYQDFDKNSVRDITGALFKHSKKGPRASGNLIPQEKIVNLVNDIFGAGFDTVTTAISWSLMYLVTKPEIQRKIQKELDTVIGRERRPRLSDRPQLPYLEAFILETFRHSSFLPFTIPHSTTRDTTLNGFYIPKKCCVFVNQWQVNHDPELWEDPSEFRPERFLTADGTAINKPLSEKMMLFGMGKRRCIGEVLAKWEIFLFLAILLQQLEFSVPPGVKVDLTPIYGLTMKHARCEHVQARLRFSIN
Description: as §1, §2, §3

CYP2C19 = molecular target: T7, CYP2C19 (Homo sapiens, UniProt P33261); assay: Cocktail assay for CYPs in human liver microsomes, mephenytoin 4′-hydroxylation (2C19); type: biochemical; conditions: 30 μM mephenytoin, 10 min at 37° C.
T7 construct: 0.1 mg/mL protein human liver microsomes (BD Gentest); tissue BD Gentest; host or cells: human liver microsomes
T7 sequence (P33261 whole entry): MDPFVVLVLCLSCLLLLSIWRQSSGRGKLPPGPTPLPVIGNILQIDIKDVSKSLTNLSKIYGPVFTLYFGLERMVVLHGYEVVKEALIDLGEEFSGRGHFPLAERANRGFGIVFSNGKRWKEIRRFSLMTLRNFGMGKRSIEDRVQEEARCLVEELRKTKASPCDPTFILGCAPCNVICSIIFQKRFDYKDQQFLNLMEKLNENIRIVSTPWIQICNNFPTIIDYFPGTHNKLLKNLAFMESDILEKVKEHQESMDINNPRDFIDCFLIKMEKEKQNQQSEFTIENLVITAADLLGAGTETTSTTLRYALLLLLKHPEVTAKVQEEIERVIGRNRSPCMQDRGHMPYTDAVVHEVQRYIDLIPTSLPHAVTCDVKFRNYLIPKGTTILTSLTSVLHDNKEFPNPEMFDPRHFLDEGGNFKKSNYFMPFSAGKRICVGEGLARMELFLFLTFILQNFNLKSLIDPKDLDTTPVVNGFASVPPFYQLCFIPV
Description: as §1, §2, §3

Structure (SMILES)	IC50 (CYP2D6)	IC50 (CYP3A4)	IC50 (CYP2C9)	IC50 (human CYP11B1)	IC50 (human CYP11B2)	IC50 (CYP1A2)	IC50 (CYP2C19)
C[C@@H](c1ccccc1-c1ccc(F)cc1)n1cncc1C(=O)N1CC[C@@H](N2CCOCC2)[C@@H](F)C1 [Compound 29]	6.22 µM	0.0063 µM	> 10 µM	22 µM	> 50 µM	> 10 µM	> 10 µM
C[C@@H](c1ccccc1-c1ccc(F)cc1)n1cncc1C(=O)N1CC[C@@H](N2CCNC(=O)C2)[C@@H](F)C1 [Compound 30]	> 10 µM	0.0058 µM	> 10 µM	> 50 µM	41.5 µM	> 10 µM	> 10 µM
C[C@H]1CN(C(=O)c2cncn2[C@@H](C)c2ccccc2-c2ccc(F)cc2)CC[C@H]1N1CCNC(=O)C1 [Compound 31]	9.6 µM	0.0097 µM	> 10 µM	28.1 µM	> 50 µM	> 10 µM	> 10 µM
C[C@H]1CN(C(=O)c2cncn2[C@@H](C)c2ccccc2-c2ccc(F)cc2)CC[C@H]1N1CC[C@@H](O)C1 [Compound 32]	8.38 µM	0.0042 µM	> 10 µM	22.5 µM	> 50 µM	> 10 µM	> 10 µM
CO[C@H]1CN(C(=O)c2cncn2[C@@H](C)c2ccccc2-c2ccc(F)cc2)CC[C@@H]1N1CCOC1=O [Compound 33]	7.36 µM	0.0091 µM	> 10 µM	> 50 µM	23.6 µM	> 10 µM	> 10 µM
C[C@@H](c1ccccc1-c1ccccc1)n1cncc1C(=O)N1CCC2NCCO[C@@H]2C1 (some centres unmarked) [Compound 34]	8.05 µM	0.0068 µM	> 10 µM	21.2 µM	> 50 µM	> 10 µM	> 10 µM
COCc1ccccc1-c1ccccc1[C@H](C)n1cncc1C(=O)N1CCC2NCCO[C@@H]2C1 (some centres unmarked) [Compound 35]	9.1 µM	0.0055 µM	> 10 µM	20.4 µM	25.8 µM	> 10 µM	> 10 µM
C[C@@H](c1ccccc1-c1cccc(F)c1)n1cncc1C(=O)N1CCC2NCCO[C@@H]2C1 (some centres unmarked) [Compound 36]	> 10 µM	0.0096 µM	> 10 µM	32.7 µM	> 50 µM	> 10 µM	> 10 µM
